Source: patent US20050288307A1, “Anti-viral compounds” (priority 2002, published 2005)
Where two headings read alike, the source gives them in different places.

Assays:
CDK2/Cyclin E = target: T1, CDK2/Cyclin E (Homo sapiens, UniProt P24941); experiment: CDK2/cyclin E kinase assay (GST-Rb phosphorylation); type: biochemical;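 also: enzyme source: His-tagged CDK2/cyclin E complex co-expressed recombinantly in Sf9 insect cells using baculovirus constructs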
T1 construct: His; made in house; host or cells: Sf9 insect cells (baculovirus)
Procedure: (§1) His-tagged CDK2/Cyclin E and CDK1/Cyclin B may be co-expressed and PKCα singularly expressed in Sf 9 insect cells infected with the appropriate baculovirus constructs. The cells are harvested two days after infection by low speed centrifugation and the proteins purified from the insect cell pellets by Metal-chelate chromatography. Briefly, the insect cell pellet is lysed in Buffer A (10 mM Tris-HCl, pH 8.0, 150 mM NaCl, 0.02% NP40 and 5 mM β-marcaptoethanol, 1 mM NaF. 1 mM Na3VO4 and Protease Inhibitors Coctail (Sigma) containing AEBSF, pepstatin A, E 64, bestatin, leupeptin) by sonication. The soluble fraction is cleared by centrifugation and loaded onto Ni-NTA-Agarose (Quiagen). Non bound proteins were washed off with 300 mM NaCl, 5-15 mM Imidazole in Buffer A and the bound proteins eluted with 250 mM Imidazole in Buffer A. The purified proteins are extensively dialyzed against Storage buffer (20 mM HEPES pH 7.4, 50 mM NaCl, 2 mM DTT, 1 mM EDTA, 1 mM EGTA, 0.02% NP40, 10% v/v Glycerol) aliquoted and stored at −70° C.

CDK1/Cyclin B = CDK1/Cyclin B (Homo sapiens, UniProt P06493); experiment: CDK1/cyclin B kinase assay (GST-Rb phosphorylation);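 also: Enzyme: His-tagged CDK1/Cyclin B co-expressed in baculovirus-infected Sf9 insect cells, purified via metal-chelate chromatography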
Chain of CDK1/Cyclin B (P06493 whole entry, species assumed): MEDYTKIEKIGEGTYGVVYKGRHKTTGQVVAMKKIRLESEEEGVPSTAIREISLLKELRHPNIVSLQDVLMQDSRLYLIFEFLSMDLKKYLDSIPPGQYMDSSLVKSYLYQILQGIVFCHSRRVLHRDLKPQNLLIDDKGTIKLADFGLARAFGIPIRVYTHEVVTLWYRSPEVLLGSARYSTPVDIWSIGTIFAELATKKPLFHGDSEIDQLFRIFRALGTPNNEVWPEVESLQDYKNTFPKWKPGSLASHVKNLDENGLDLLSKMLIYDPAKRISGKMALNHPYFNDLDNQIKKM
Chain of CDK1/Cyclin B (P14635 whole entry partner, species assumed): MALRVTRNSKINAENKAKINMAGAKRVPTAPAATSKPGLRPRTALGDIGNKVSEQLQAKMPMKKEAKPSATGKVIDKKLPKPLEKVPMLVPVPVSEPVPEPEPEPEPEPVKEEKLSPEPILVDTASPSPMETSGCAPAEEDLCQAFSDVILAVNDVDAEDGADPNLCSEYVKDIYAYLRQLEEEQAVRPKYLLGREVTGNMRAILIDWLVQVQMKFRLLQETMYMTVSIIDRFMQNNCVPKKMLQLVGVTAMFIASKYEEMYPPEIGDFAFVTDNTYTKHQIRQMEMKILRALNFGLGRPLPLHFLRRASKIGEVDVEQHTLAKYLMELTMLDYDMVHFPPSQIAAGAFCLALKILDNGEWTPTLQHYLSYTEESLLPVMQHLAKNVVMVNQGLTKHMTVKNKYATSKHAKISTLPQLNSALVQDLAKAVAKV
Procedure: as §1

CDK9/cyclin T1 = CDK9/cyclin T1 (Homo sapiens, UniProt P50750); experiment: CDK9 assay (CTD peptide substrate); type: biochemical
Chain of CDK9/cyclin T1 (P50750 whole entry): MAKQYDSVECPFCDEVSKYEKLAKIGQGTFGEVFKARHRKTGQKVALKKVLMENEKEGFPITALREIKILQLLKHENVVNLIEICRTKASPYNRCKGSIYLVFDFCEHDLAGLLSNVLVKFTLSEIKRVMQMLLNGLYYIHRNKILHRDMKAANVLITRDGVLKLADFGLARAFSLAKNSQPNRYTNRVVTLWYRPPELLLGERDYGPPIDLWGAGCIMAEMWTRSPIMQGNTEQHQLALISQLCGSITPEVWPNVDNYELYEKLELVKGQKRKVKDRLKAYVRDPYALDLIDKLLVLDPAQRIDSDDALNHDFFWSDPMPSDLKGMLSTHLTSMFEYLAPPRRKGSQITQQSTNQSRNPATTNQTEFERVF
Chain of CDK9/cyclin T1 (O60563 whole entry partner): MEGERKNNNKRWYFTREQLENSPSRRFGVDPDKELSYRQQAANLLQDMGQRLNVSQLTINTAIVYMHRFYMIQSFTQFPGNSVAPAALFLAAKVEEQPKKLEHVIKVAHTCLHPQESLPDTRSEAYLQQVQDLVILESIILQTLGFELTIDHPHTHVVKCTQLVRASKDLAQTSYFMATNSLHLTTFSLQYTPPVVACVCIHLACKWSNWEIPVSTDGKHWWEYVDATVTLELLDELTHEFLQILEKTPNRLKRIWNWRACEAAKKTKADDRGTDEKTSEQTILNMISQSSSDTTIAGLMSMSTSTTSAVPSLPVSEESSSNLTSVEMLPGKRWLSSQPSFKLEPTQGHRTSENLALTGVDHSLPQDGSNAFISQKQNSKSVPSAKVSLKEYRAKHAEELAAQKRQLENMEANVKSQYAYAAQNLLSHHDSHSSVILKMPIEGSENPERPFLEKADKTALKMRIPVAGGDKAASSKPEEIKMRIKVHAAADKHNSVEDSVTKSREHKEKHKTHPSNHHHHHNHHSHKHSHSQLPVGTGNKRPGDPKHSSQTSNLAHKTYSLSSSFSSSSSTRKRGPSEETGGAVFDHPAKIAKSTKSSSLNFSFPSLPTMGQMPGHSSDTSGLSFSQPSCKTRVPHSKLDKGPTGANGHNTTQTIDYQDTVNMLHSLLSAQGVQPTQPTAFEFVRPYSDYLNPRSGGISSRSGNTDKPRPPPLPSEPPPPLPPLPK
Procedure: CTD peptide substrate (biotinyl-Ahx-(Tyr-Ser-Pro-Thr-Ser-Pro-Ser)4-NH2; 1-2 mg/mL) and recombinant human CDK7/cyclin H, CDK9/cyclin T1, or CDK9/cyclin K (0.5-2 μg) were incubated for 45 min at 30° C. in the presence of varying amounts of test compound in 20 mM MOPS pH 7.2, 25 mM β-glycerophosphate, 5 mM EGTA, 1 mM DTT, 1 mM sodium vanadate, 15 mM MgCl2, and 100 μM ATP (containing a trace amount of ^32PγATP) in a total volume of 25 μL in a 96-well microtiter plate. The reaction was stopped by placing the plate on ice for 2 min. Avidin (50 μg) was added to each well, and the plate was incubated at room temp for 30 min. The samples were transferred to a 96-well P81 filter plate, and washed (4×200 μL per well) with 75 mM phosphoric acid. Microscint 40 scintillation liquid (50 μL) was added to each well, and the amount of ^32P incorporation for each sample was measured using a Packard Topcount microplate scintillation counter.

CDK4/Cyclin D1 = CDK4/Cyclin D1 (Homo sapiens, UniProt P11802); experiment: CDK4/cyclin D1 kinase assay (GST-Rb phosphorylation); type: biochemical; settings: Table 3; read-out: Average IC50 CDK4 cyclin D1
Chain of CDK4/Cyclin D1 (P11802 whole entry, species assumed): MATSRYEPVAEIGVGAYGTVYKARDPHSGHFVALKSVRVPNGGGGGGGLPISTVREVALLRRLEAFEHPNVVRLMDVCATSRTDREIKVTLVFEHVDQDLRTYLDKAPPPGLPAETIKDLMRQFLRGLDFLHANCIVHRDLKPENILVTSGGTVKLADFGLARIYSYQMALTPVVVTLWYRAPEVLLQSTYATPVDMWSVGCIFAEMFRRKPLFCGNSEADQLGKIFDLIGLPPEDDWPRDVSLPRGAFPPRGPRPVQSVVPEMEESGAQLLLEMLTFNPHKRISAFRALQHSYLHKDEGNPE
Chain of CDK4/Cyclin D1 (P24385 whole entry partner, species assumed): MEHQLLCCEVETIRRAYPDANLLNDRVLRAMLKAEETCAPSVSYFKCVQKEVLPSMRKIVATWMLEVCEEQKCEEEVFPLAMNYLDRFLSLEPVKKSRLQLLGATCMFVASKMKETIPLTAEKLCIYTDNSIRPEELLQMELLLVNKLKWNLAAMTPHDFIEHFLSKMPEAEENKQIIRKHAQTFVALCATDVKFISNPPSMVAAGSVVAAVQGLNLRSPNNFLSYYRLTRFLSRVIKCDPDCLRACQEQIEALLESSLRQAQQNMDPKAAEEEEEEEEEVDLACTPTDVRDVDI

[1] = Table 3, read-out: Average IC50 CDK2 cyclin E1
[2] = Table 3, read-out: Average IC50 CDK9 cyclin T1
[3] = Table 4, read-out: Kinase Inhibition IC50 CDK9-cyclin T1

| SMILES | IC50 (CDK2/Cyclin E; [1]) | IC50 (CDK9/cyclin T1; [2]) | other results |
| --- | --- | --- | --- |
| Cc1nc(C)c(-c2ccnc(Nc3ccc(Cl)cc3)n2)s1 [Compound 2, (4-Chloro-phenyl)-[4-(2,4-dimethyl-thiazol-5-yl)-pyrimidin-2-yl]-amine] | – | – | IC50 (CDK2/Cyclin E): 5100 nM; IC50 (CDK1/Cyclin B): 14000 nM |
| Cc1nc(C)c(-c2ccnc(Nc3ccccc3F)n2)s1 [Compound 7, [4-(2,4-Dimethyl-thiazol-5-yl)-pyrimidin-2-yl]-(2-fluoro-phenyl)-amine] | – | – | IC50 (CDK1/Cyclin B): 12000 nM |
| Cc1nc(C)c(-c2ccnc(Nc3cc(F)cc(F)c3)n2)s1 [Compound 10, (3,5-Difluoro-phenyl)-[4-(2,4-dimethyl-thiazol-5-yl)-pyrimidin-2-yl]-amine] | 5900 nM | – | IC50 (CDK1/Cyclin B): 5500 nM |
| Cc1nc(C)c(-c2ccnc(Nc3cc(Cl)cc(Cl)c3)n2)s1 [Compound 11, (3,5-Dichloro-phenyl)-[4-(2,4-dimethyl-thiazol-5-yl)-pyrimidin-2-yl]-amine] | 10000 nM | – | IC50 (CDK1/Cyclin B): 20000 nM |
| Cc1nc(C)c(-c2ccnc(Nc3ccc(Cl)cc3Cl)n2)s1 [Compound 12, (2,4-Dichloro-phenyl)-[4-(2,4-dimethyl-thiazol-5-yl)-pyrimidin-2-yl]-amine] | 10000 nM | – | – |
| Cc1nc(C)c(-c2ccnc(Nc3cccc(I)c3)n2)s1 [Compound 20, [4-(2,4-Dimethyl-thiazol-5-yl)-pyrimidin-2-yl]-(3-iodo-phenyl)-amine] | 6800 nM | – | – |
| Cc1nc(C)c(-c2ccnc(Nc3cccc(F)c3)n2)s1 [Compound 22, [4-(2,4-Dimethyl-thiazol-5-yl)-pyrimidin-2-yl]-(3-fluoro-phenyl)-amine] | 220 nM | – | – |
| Cc1nc(C)c(-c2ccnc(Nc3ccc(F)c(F)c3)n2)s1 [Compound 23, (3,4-Difluoro-phenyl)-[4-(2,4-dimethyl-thiazol-5-yl)-pyrimidin-2-yl]-amine] | – | 3110 nM | – |
| COc1ccccc1Nc1nccc(-c2sc(C)nc2C)n1 [Compound 24, [4-(2,4-Dimethyl-thiazol-5-yl)-pyrimidin-2-yl]-(2-methoxy-phenyl)-amine] | 6300 nM | – | – |
| COc1cccc(Nc2nccc(-c3sc(C)nc3C)n2)c1 [Compound 25, [4-(2,4-Dimethyl-thiazol-5-yl)-pyrimidin-2-yl]-(3-methoxy-phenyl)-amine] | 440 nM | – | – |
| Cc1nc(C)c(-c2ccnc(Nc3ccc(C(=O)O)cc3)n2)s1 [Compound 40, 4-[4-(2,4-Dimethyl-thiazol-5-yl)-pyrimidin-2-ylamino]-benzoic acid] | 740 nM | – | – |
| Cc1nc(C)c(-c2cc(Br)nc(Nc3cccc([N+](=O)[O-])c3)n2)s1 [Compound 41, [4-Bromo-6-(2,4-dimethyl-thiazol-5-yl)-pyrimidin-2-yl]-(3-nitro-phenyl)-amine] | 580 nM | – | – |
| CNc1nc(C)c(-c2ccnc(Nc3ccc(O)c([N+](=O)[O-])c3)n2)s1 [Compound 58, 4-[4-(4-Methyl-2-methylamino-thiazol-5-yl)-pyrimidin-2-ylamino]-2-nitro-phenol] | 1500 nM | 61 nM | – |
| CCNc1nc(C)c(-c2ccnc(Nc3ccc(F)cc3)n2)s1 [Compound 60, [4-(2-Ethylamino-4-methyl-thiazol-5-yl)-pyrimidin-2-yl]-(4-fluoro-phenyl)-amine] | 510 nM | – | – |
| CNc1nc(C)c(-c2ccnc(Nc3cccc([N+](=O)[O-])c3)n2)s1 [Compound 61, [4-(4-Methyl-2-methylamino-thiazol-5-yl)-pyrimidin-2-yl]-(3-nitro-phenyl)-amine] | 2100 nM | 190 nM | – |
| C=CCNc1nc(C)c(-c2ccnc(Nc3ccc(F)cc3)n2)s1 [Compound 67, [4-(2-Allylamino-4-methyl-thiazol-5-yl)-pyrimidin-2-yl]-(4-fluoro-phenyl)-amine] | 1300 nM | – | – |
| CNc1nc(C)c(-c2ccnc(Nc3cccc(Br)c3)n2)s1 [Compound 68, (3-Bromo-phenyl)-[4-(4-methyl-2-methylamino-thiazol-5-yl)-pyrimidin-2-yl]-amine] | 27000 nM | 10 nM | – |
| C=CCNc1nc(C)c(-c2ccnc(Nc3cccc([N+](=O)[O-])c3)n2)s1 [Compound 69, [4-(2-Allylamino-4-methyl-thiazol-5-yl)-pyrimidin-2-yl]-(3-nitro-phenyl)-amine] | – | 68 nM | – |
| CNc1nc(C)c(-c2ccnc(Nc3cccc(OC)c3)n2)s1 [Compound 73, (3-Methoxy-phenyl)-[4-(4-methyl-2-methylamino-thiazol-5-yl)-pyrimidin-2-yl]-amine] | 310 nM | 480 nM | – |

| SMILES | IC50 (CDK2/Cyclin E; [1]) | IC50 (CDK9/cyclin T1; [2]) | other results |
| --- | --- | --- | --- |
| CNc1nc(C)c(-c2ccnc(Nc3ccc(C(F)(F)F)cc3)n2)s1 [Compound 74, [4-(4-Methyl-2-methylamino-thiazol-5-yl)-pyrimidin-2-yl]-(4-trifluoromethyl-phenyl)-amine] | 1900 nM | – | – |
| COc1ccc(Nc2nccc(-c3sc(C)nc3C)n2)c(O)c1 [Compound 79, 2-[4-(2,4-Dimethyl-thiazol-5-yl)-pyrimidin-2-ylamino]-5-methoxy-phenol] | 1200 nM | – | – |
| COC(=O)c1cc(Nc2nccc(-c3sc(C)nc3C)n2)ccc1Cl [Compound 83, 2-Chloro-5-[4-(2,4-dimethyl-thiazol-5-yl)-pyrimidin-2-ylamino]-benzoic acid methyl ester] | 2000 nM | – | – |
| CNc1nc(C)c(-c2ccnc(Nc3cccc(F)c3)n2)s1 [Compound 87, (3-Fluoro-phenyl)-[4-(4-methyl-2-methylamino-thiazol-5-yl)-pyrimidin-2-yl]-amine] | 1300 nM | 63 nM | – |
| CNc1nc(C)c(-c2ccnc(Nc3ccc(OC)cc3)n2)s1 [Compound 93, (4-Methoxy-phenyl)-[4-(4-methyl-2-methylamino-thiazol-5-yl)-pyrimidin-2-yl]-amine] | 1 nM | – | – |
| O=[N+]([O-])c1ccc(Nc2ncc(-c3ccnc(Nc4ccc(O)cc4)n3)s2)cc1 [Compound 95, 4-{4-[2-(4-Nitro-phenylamino)-thiazol-5-yl]-pyrimidin-2-ylamino}-phenol] | 120 nM | – | – |
| Cc1nc(C)c(-c2ccnc(Nc3cccc(CO)c3)n2)s1 [Compound 100, {3-[4-(2,4-Dimethyl-thiazol-5-yl)-pyrimidin-2-ylamino]-phenyl}-methanol] | 190 nM | – | – |
| Cc1nc(C)c(-c2ccnc(Nc3ccc(Cc4ccncc4)cc3)n2)s1 [Compound 101, [4-(2,4-Dimethyl-thiazol-5-yl)-pyrimidin-2-yl]-(4-pyridin-4-ylmethyl-phenyl)-amine] | 690 nM | – | IC50 (CDK4/Cyclin D1): 1100 nM |
| Cc1nc(N)sc1-c1ccnc(Nc2ccc(N(C)C)cc2)n1 [Compound 106, N-[4-(2-Amino-4-methyl-thiazol-5-yl)-pyrimidin-2-yl]-N′,N′-dimethyl-benzene-1,4-diamine] | – | 240 nM | – |
| COc1ccc(Nc2nccc(-c3sc(N)nc3C)n2)cc1 [Compound 111, [4-(2-Amino-4-methyl-thiazol-5-yl)-pyrimidin-2-yl]-(4-methoxy-phenyl)-amine] | 670 nM | – | – |
| Cc1nc(N)sc1-c1ccnc(Nc2cccc(Br)c2)n1 [Compound 119, [4-(2-Amino-4-methyl-thiazol-5-yl)-pyrimidin-2-yl]-(3-bromo-phenyl)-amine] | – | 280 nM | – |
| CNc1nc(C)c(-c2ccnc(Nc3ccc(N(C)C)cc3)n2)s1 [Compound 131, N,N-Dimethyl-N′-[4-(4-methyl-2-methylamino-thiazol-5-yl)-pyrimidin-2-yl]-benzene-1,4-diamine] | – | 170 nM | – |
| CNc1nc(C)c(-c2ccnc(Nc3ccc(I)c([N+](=O)[O-])c3)n2)s1 [Compound 132, (4-Iodo-3-nitro-phenyl)-[4-(4-methyl-2-methylamino-thiazol-5-yl)-pyrimidin-2-yl]-amine] | – | 110 nM | – |
| CCNc1nc(C)c(-c2ccnc(Nc3ccc(Cl)cc3)n2)s1 [Compound 134, (4-Chloro-phenyl)-[4-(2-ethylamino-4-methyl-thiazol-5-yl)-pyrimidin-2-yl]-amine] | 2000 nM | 5900 nM | IC50 (CDK1/Cyclin B): 22000 nM |
| Cc1nc(NCCO)sc1-c1ccnc(Nc2cccc([N+](=O)[O-])c2)n1 [Compound 144, 2-{4-Methyl-5-[2-(3-nitro-phenylamino)-pyrimidin-4-yl]-thiazol-2-ylamino}-ethanol] | – | 4 nM | – |
| Cc1nc(NCCO)sc1-c1ccnc(Nc2ccc(F)cc2)n1 [Compound 145, 2-{5-[2-(4-Fluoro-phenylamino)-pyrimidin-4-yl]-4-methyl-thiazol-2-ylamino}-ethanol] | – | 8 nM | – |
| Cc1c(-c2ccnc(Nc3ccc(O)cc3)n2)sc(=O)n1C [Compound 152, 5-[2-(4-Hydroxy-phenylamino)-pyrimidin-4-yl]-3,4-dimethyl-3H-thiazol-2-one] | – | – | IC50 (CDK9/cyclin T1; [3]): 2.3 nM |
| Cc1c(-c2ccnc(Nc3ccc(F)cc3)n2)sc(=O)n1C [Compound 155, 5-[2-(4-Fluoro-phenylamino)-pyrimidin-4-yl]-3,4-dimethyl-3H-thiazol-2-one] | – | – | IC50 (CDK9/cyclin T1; [3]): 2.7 nM |
| Cc1cc(Nc2nccc(-c3sc(=O)n(C)c3C)n2)ccc1F [Compound 162, 5-[2-(4-Fluoro-3-methyl-phenylamino)-pyrimidin-4-yl]-3,4-dimethyl-3H-thiazol-2-one] | – | – | IC50 (CDK9/cyclin T1; [3]): 79 nM |
